This is an account of results in patent publication US20220373555A1, “Methods to detect or quantify a gadolinium-based contrast agent in a sample using a luminescent agent able to chelate a Gd3+ cation” (THE REGENTS OF THE UNIVERSITY OF CALIFORNIA, priority 2021, published 2022).

A short description of series [1]: Quantification of GBCAs in mouse urine by luminescence assay. Format: in vivo, Swiss Webster mice. As to conditions: for [GBCA] in assay solution: mouse urine 2 h after injection, diluted in MES buffer; for [GBCA] in original sample: mouse urine collected 2 h after injection; for GBCA concentration in mouse urine, Luminescence assay: urine collected 2 h after i.v. injection, 0.3 mmol/kg. The procedure:
(§1) Finally, the luminescence assay by quantifying GBCAs in mouse urine samples is validated. The three GBCAs are intravenously injected (four mice per group), and urine is collected 2 h after injection, as mice excrete the contrast agents more quickly than humans do.^41 Due to the different composition between mouse and human urine,^42 calibration curves (FIG. 7) are performed by spiking GBCA standards into urine from control mice rather than into synthetic human urine. Table 4 reports the assay response to the mouse urine samples, and Table 3 compares the GBCA concentrations quantified by the assay versus inductively coupled plasma optical emission spectrometry (ICP-OES), which is one of the gold standard techniques for gadolinium quantification.^43 The assay provided values that are very similar to those of ICP-OES, with only slightly higher standard deviations.
(§2) The protocol used in the animal studies is reviewed and approved by the Institutional Animal Care and Use Committee of Lawrence Berkeley National Laboratory, and is performed in AAALAC-accredited facilities according to prescribed guidelines and regulations. The animals are young adult (78 days old) female (33.0±1.4 g) Swiss Webster mice (Simonsen Laboratories, Gilroy, Calif., USA). Mice are kept under a 12 h light cycle with controlled temperature (21-24° C.) and relative humidity (30-70%), and are given water and food ad libitum. Each group is housed together in a plastic stock cage lined with a 0.5 cm layer of highly absorbent low-ash pelleted cellulose bedding (ALPHA-dri). Groups of four mice are injected intravenously into a warmed lateral tail vein with a single dose of GBCA (0.3 mmol/kg mouse) or bacteriostatic 0.9 bio sodium chloride solution (control group), and urine is collected after 2 h through bladder massage method. Finally, euthanasia is performed under isotiurane anesthesia.
Because the GBCA concentration in mouse urine is very high at early excretion times, the samples are diluted in buffer as described: 1 μL mouse urine samples are mixed with […] MES solutions (final concentration 50 mM, pH 6.0). 4 μL 3,4,3-LI(1,2-HOPO) (1 mM) are added to each solution, mixed for 10 s, and left to incubate at room temperature, without stirring for 10 min. 4 μL EuCl3 (1 mM) are added, mixed for 10 s and left undisturbed for 10 min before recording emission spectra from 500 to 700 nm under 315 nm excitation with a SpectraMax iD3 Multi-Mode Microplate Reader. For calibration curve preparation, GBCA standard solutions are spiked into urine of control mice. The resulting solutions are quantified as previously described in this paragraph.

A short description of series [2]: Quantification of GBCAs in mouse urine by ICP-OES. As to conditions: urine collected 2 h after i.v. injection, 0.3 mmol/kg. Format: in vivo, Swiss Webster mice. As for the experimental part:
as §1
as §2, with “Groups of four mice are injected intravenously into a warmed lateral tail vein with a single dose of GBCA (0.3 mmol/kg mouse) or bacteriostatic 0.9 bio sodium chloride solution (control group), and urine is collected after 2 h through bladder massage method. Finally, euthanasia is performed under isotiurane anesthesia.” left out
To quantify the concentrations of the GBCA in mouse urine by ICP-OES, 50 μL of commercial stock solutions are digested in 100 μL of nitric acid (70%) and 100 μL of hydrogen chloride (6 N) for 3 h at 60 ° C. and re-dispersed in 4.75 mL of Milli-Q water. The final concentration of gadolinium in solution is quantified on a Perkin Elmer 5300 DV optical emission ICP with auto sampler at the Inductively Coupled Plasma Spectroscopy Facility of the University of California, Berkeley. […]

Series [3] is described as follows: Effect of urine on Eu3+-3,4,3-LI(1,2-HOPO) emission / stability in urine. Format: physicochemical. The procedure: Urine is a complex matrix comprised of salts and metabolism by-products, which can potentially affect assay response. […] Although the average pH of human urine is 6.0, there is a strong variation among individuals.^37 Therefore, the following in vitro experiments are performed with urine at 50% dilution with […] buffer (50 mM, pH 6.0) to fix the acidity of the solution, preventing potential variations in the assay response due to sample pH, and 10 min incubation times, which had been optimized in preliminary experiments.
2 μL 3,4,3-LI(1,2-HOPO) (1 mM) and EuCl3 (1 mM) are added to a water solution, mixed for 10 s, and left to incubate at room temperature, without stirring, for 10 min. The absorption spectrum (from 250 to 425 nm) and luminescence spectrum (from 500 to 750 nm under 315 nm excitation) are recorded with a SpectraMax iD3 Multi-Mode Microplate Reader (Molecular Devices, Sunnyvale, Calif.).

Series [4] is described as follows: Selectivity of the Eu3+-3,4,3-LI(1,2-HOPO) probe: optical response to Gd3+ and interfering cations. As to conditions: 50 μM cation; emission at 620 nm, 315 nm excitation. The class given is physicochemical.
Method: The optical response (FIG. 2b) of the Eu^3+-3,4,3-LI(1,2-HOPO) complex to Gd^3+ ions and several potential interfering cations is examined.
2 μL 3,4,3-LI(1,2-HOPO) (1 mM) are added to various solutions containing 50 μM of Gd^3+, Na^+, K^+, Ca^2+ or Mg^2+, mixed for 10 s, and left to incubate at room temperature, without stirring for 10 min. 2 μL EuCl3 (1 mM) are added to the solutions, mixed for 10 s, and left undisturbed for 10 min before recording emission spectra from 500 to 700 nm, under 315 nm excitation with a SpectraMax iD3 Multi-Mode Microplate Reader.
Series [5] can be described thus: Detection of GBCA in synthetic human urine by luminescence quenching assay. As to conditions: GBCA increased up to 150 μM; 50% synthetic human urine, 50 mM MES pH 6.0. The procedure: In this assay, 3,4,3-LI(1,2-HOPO) is added to the urine sample and, in the absence of GBCAs, 1,2-HOPO groups remain available to complex other metal species. Eu^3+ is then added, and its emission is sensitized (FIG. 3). In the presence of GBCAs, however, 1,2-HOPO units acquire the Gd^3+ from the contrast agent because of their higher affinity for the metal compared to clinical ligands,^23 preventing the coordination of subsequently added Eu^3+. Thus, a drastic emission quenching is induced in presence of GBCAs.
Surine™ samples containing different amounts of GBCA are diluted down to 50% with MES solution (final concentration 50 mM, pH 6.0). 2 μL 3,4,3-LI(1,2-HOPO) (1 mM) are added to each solution, mixed for 10 s, and left to incubate at room temperature, without stirring for 10 min. 2 μL EuCl3 (1 mM) are added, mixed for 10 s and left undisturbed for 10 min before recording emission spectra from 500 to 700 nm under 315 nm excitation with a SpectraMax iD3 Multi-Mode Microplate Reader.
The limit of detection is calculated as: […]
Where ILOD is the assay response intensity at the limit of detection, Iblank is the response intensity of the blank, and σblank is the standard deviation for the blank signal.

Consider `CNC[C@H](O)[C@@H](O)[C@H](O)[C@H](O)CO.CNC[C@H](O)[C@@H](O)[C@H](O)[C@H](O)CO.O=C([O-])CN(CCN(CC(=O)[O-])CC(=O)O)CCN(CC(=O)O)C(COCc1ccccc1)C(=O)[O-].[Gd+3]` (stereo not shown) [Multihance, gadobenate dimeglumine], for which, in series [1], the “[GBCA] in assay solution” value is 86 ± 9 µM; the “[GBCA] in original sample” value is 0.017 ± 0.004 M; the “GBCA concentration in mouse urine, Luminescence assay” value was 0.017 ± 0.004 M. In addition, the “GBCA concentration in mouse urine, ICP-OES” value (“GBCA concentration … ICP-OES” below) in series [2] came to 0.015 ± 0.000 M.
For the compound `CNC(=O)CN(CCN(CCN(CC(=O)[O-])CC(=O)NC)CC(=O)[O-])CC(=O)[O-].[Gd+3]` [Omnsican, gadodiamide], in series [1], the “[GBCA] in assay solution” value came out at 101 ± 3 µM; the “[GBCA] in original sample” value is 0.020 ± 0.001 M; the “GBCA concentration in mouse urine, Luminescence assay” value was determined as 0.020 ± 0.001 M. In addition, in series [2], the “GBCA concentration … ICP-OES” value is on record as 0.024 ± 0.000 M.
As to `O=C(NCCCN(CCCCN(CCCNC(=O)c1cccc(=O)n1O)C(=O)c1cccc(=O)n1O)C(=O)c1cccc(=O)n1O)c1cccc(=O)n1O` [3,4,3-LI(1,2-HOPO)], the stability in urine result in series [3] (urine) is “stable in urine”.
Consider `O.O.O.O.O.O.[Cl-].[Cl-].[Cl-].[Gd+3]` [Gd^3+, gadolinium (III) chloride hexahydrate], for which, in series [4], the “quenching of 20 μM Eu^3+-3,4,3-LI(1,2-HOPO) emission” value stood at 71±1%.
On to Eu^3+-3,4,3-LI(1,2-HOPO), for which, in series [3] (20 μM, 0 to 100% artificial human urine (Surine), 315 nm excitation), the “effect of urine on emission” value is reported as “not affected by urine”.
Take `CNC[C@H](O)[C@@H](O)[C@H](O)[C@H](O)CO.CNC[C@H](O)[C@@H](O)[C@H](O)[C@H](O)CO.O=C([O-])CN(CCN(CC(=O)[O-])CC(=O)O)CCN(CC(=O)[O-])CC(=O)O.[Gd+3]` [Magnevist, gadopentetate dimeglumine]: in series [5], the “decrease of luminescence of the assay solution” value came to 75±1%. Also, in series [1], the “[GBCA] in assay solution” value came to 101 ± 13 µM; the “[GBCA] in original sample” value came out at 0.020 ± 0.005 M; the “GBCA concentration in mouse urine, Luminescence assay” value is 0.020 ± 0.005 M. The “GBCA concentration … ICP-OES” value in series [2] was determined as 0.018 ± 0.000 M.
